In brackets after ≈: the same amount, converted by molar mass.
Assays:
[1] = system: Pseudoperonospora cubensis; test: Spore suspension spray inoculation method on pot-cultured cucumber seedlings (cucumber downy mildew); type: in vivo; conditions: for EC50: Pseudoperonospora cubensis, against cucumber downy mildew, from regression of control effect at 6.25-100 mg/L; for control effect against cucumber downy mildew (in words): at 200 mg/L concentration; for Control effect (%) Cucumber downy mildew: concentration 200 mg/L; for Control effect (%) Cucumber downy mildew / Control effect (%): 5% EC diluted with water containing 1% Tween 80; for Control effect (%): cucumber downy mildew, investigated after 5 d
Method: Test Object: Pseudoperonospora cubensis Test design: the compound in a structure expressed by formula (I) (Y14078), the compound in a structure expressed by formula (II) (Y14079), and a reference chemical amisulbrom are prepared with DMF into 5% emulsifiable concentrate (hereafter abbreviated as EC) respectively, and then the EC is diluted with water containing 1% Tween 80 to 5 concentration gradients, i.e., 100, 50, 25, 12.5, and 6.25 mg/L. Each process is repeated for 4 times. Test method: the biological activity of the formulation is measured with a spore suspension spray inoculation method. Pot-cultured cucumber seedlings in the same growth state in the 1-leaf and 1-heart stage (with the growing point removed) are selected, sprayed with the formulation, and dried naturally. After 24 h, spores on the back side of the leaf infected by the disease is picked with a writing brush dipped with distilled water, and are prepared into spore suspension (2-3×10^5 spores/ml), the spore suspension is sprayed uniformly with an inoculating sprayer (at 0.1 MPa pressure) to the leaves of cucumbers, and then the inoculated cucumber seedlings are moved into a climatic chamber (relative humidity: 100%, temperature: 20° C., light-dark cycle time: 14 h/10 h) and cultured. After 24 h, the relative humidity is maintained at about 90% for induction; after 5 d, grading and investigation are carried out on the basis of the disease situation of the blank control group, and the control effect (%) is calculated according to the disease severity index. Investigation Method and Grading Criteria: Level 0: free from disease; Level 1: disease speckle area accounts for 5% or less of the total area of the leaf; Level 3: disease speckle area accounts for 6%-10% of the total area of the leaf; Level 5: disease speckle area accounts for 11%-25% of the total area of the leaf; Level 7: disease speckle area accounts for 26%-50% of the total area of the leaf; Level 9: disease speckle area accounts for 50% or more of the total area of the leaf. Effect Calculation: Disease index=Σ(quantity of leaves at all levels×relative level value)×100/(total quantity of leaves×9); Control effect (%)=(disease index of the control group−disease index of treated group)×100/disease index of control group Test design: the compound in a structure expressed by formula (I) (Y14078) and the compound in a structure expressed by formula (II) (Y14079) are prepared with DMF into 5% emulsifiable concentrate (hereafter abbreviated as EC) respectively, and then the EC is diluted with water containing 1% Tween 80 to prepare 200 mg/L formulation. Each process is repeated for 4 times. Test method for Pseudoperonospora cubensis: the biological activity of the formulation is measured with a spore suspension spray inoculation method. Pot-cultured cucumber seedlings in the same growth state in the 1-leaf and 1-heart stage (with the growing point removed) are selected, sprayed with the formulation, and dried naturally. After 24 h, spores on the back side of the leaf infected by the disease is picked with a writing brush dipped with distilled water, and are prepared into spore suspension (2-3×10^5 spores/[…]), the spore suspension is sprayed uniformly with an inoculating sprayer (at 0.1 MPa pressure) to the leaves of cucumbers, and then the inoculated cucumber seedlings are moved into a climatic chamber (relative humidity: 100%, temperature: 20° C., light-dark cycle time: 14 h/10 h) and cultured. After 24 h, the relative humidity is maintained at about 90% for induction; after 5 d, grading and investigation are carried out on the basis of the disease situation of the blank control group, and the control effect (%) is calculated according to the disease severity index. 2. […]

[2] = system: Rhizoctonia solani; test: Fungus cake inoculation on pot-cultured seedlings (rice sheath blight); type: in vivo; conditions: for control effect against rice sheath blight (in words): at 200 mg/L concentration; for Control effect (%) Rice sheath blight: concentration 200 mg/L, 5% EC diluted with water containing 1% Tween 80
Method: Test Object: Pseudoperonospora cubensis, Rhizoctonia Solani Test design: the compound in a structure expressed by formula (I) (Y14078) and the compound in a structure expressed by formula (II) (Y14079) are prepared with DMF into 5% emulsifiable concentrate (hereafter abbreviated as EC) respectively, and then the EC is diluted with water containing 1% Tween 80 to prepare 200 mg/L formulation. Each process is repeated for 4 times. Test method for Rhizoctonia solani: two pot-cultured seedlings in the same growth state in the true leaf stage are selected, sprayed with the formulation and then dried, and fungus cakes are attached to the leaves with the hypha side facing the leave. The seedlings are kept in a dark environment at 22-26° C. moisturizing for 24 h, and then the natural lighting is recovered, and the seedlings are cultured for about 4 days. After the disease is developed extensively in the control group, the diameter of the disease speckle at each inoculated site is measured with callipers, and the control effect is calculated. 2.

| melting point | SMILES | EC50 [1] | control effect against cucumber downy mildew (in words) [1] | Control effect (%) Cucumber downy mildew [1] | Control effect (%) ([1]; concentration 6.25 mg/L) | Control effect (%) ([1]; concentration 12.5 mg/L) | Control effect (%) ([1]; concentration 25 mg/L) | Control effect (%) ([1]; concentration 50 mg/L) | Control effect (%) ([1]; concentration 100 mg/L) | control effect against rice sheath blight (in words) [2] | Control effect (%) Rice sheath blight [2] |
| --- | --- | --- | --- | --- | --- | --- | --- | --- | --- | --- | --- |
| – | CN(C)S(=O)(=O)n1cnc(S(=O)(=O)Oc2ccc3ccccc3c2Br)n1 [Compound Y14078] | 12.2 µg/mL (≈ 26.5 µM) | especially remarkable | 100% | 35.56% | 49.97% | 67.27% | 76.24% | 87.58% | good control effect | 52.5% |
| 141 to 143 °C | CN(C)S(=O)(=O)n1cnc(S(=O)(=O)Oc2ccc(Oc3ccccc3)cc2)n1 [Compound Y14079] | 13.6 µg/mL (≈ 32 µM) | especially remarkable | 100% | 31.21% | 47.79% | 59.89% | 85.56% | 94.63% | good control effect | 67.5% |
